Test results reported in patent US9833455B2, “Preparation and methods of use for ortho-aryl 5-membered heteroaryl-carboxamide containing multi-targeted kinase inhibitors” (Spacefill Enterprises LLC, priority 2011, dated 2017).
One block for each molecule: values may come before it.

What was measured:
MKNK1 = molecular target: T1, MKNK1 (Homo sapiens, UniProt Q9BUB5); test: Nanosyn kinase profiling, % inhibition; assay type: biochemical; settings: panel of 230 kinases
T1 construct: literature Ambit Biosciences
T1 sequence (Q9BUB5 whole entry): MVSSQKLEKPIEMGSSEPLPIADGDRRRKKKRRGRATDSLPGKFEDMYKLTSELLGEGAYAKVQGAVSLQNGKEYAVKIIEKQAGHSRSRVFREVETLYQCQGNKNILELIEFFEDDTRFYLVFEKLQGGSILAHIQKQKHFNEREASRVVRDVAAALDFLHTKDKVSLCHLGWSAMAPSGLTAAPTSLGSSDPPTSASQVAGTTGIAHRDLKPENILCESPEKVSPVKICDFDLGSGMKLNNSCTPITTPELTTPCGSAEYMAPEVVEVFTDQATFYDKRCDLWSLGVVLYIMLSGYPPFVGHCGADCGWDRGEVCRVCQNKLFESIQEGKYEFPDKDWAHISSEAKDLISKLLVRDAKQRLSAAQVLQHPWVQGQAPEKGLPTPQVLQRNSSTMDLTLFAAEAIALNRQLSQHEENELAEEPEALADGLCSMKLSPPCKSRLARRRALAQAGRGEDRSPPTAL
Method: (§1) “Inhibiting kinase activity” means to decrease the production of an phosphor-peptide by a particular kinase that can be separated by analytical techniques. For example, a comprehensive platform of kinase, protease, phosphatase and epigenetic assays that utilizes cutting-edge microfluidics and informatics tools to provide accurate and rapid results. Profiling data in this application were determined using these techniques at Nanosyn Inc. IC50 data were provided by Reaction Biology Inc using a P33 radiolabeled kinase assay.
(§2) More modest activity for Aurora-A, FLT-1/4, KDR, KIT, PDGFRs was accompanied by better activity for B-Raf mutant and wild-type forms, Modest inhibition of MEK-1, BTK, c-Met, RET, and RON was also observed. […] Moreover, the observed inhibition of MEK-1 with 1-12 and TYK2 with I-6 represents additional activities against kinases for which no type-II inhibitors have been reported to date. […] To further evaluate the scope of inhibition, I-6 was evaluated against a larger panel of 230 kinases, Table-22.

PRKD3 = PRKD3 (Homo sapiens, UniProt O94806); test: Nanosyn kinase profiling, % inhibition; assay type: biochemical; settings: panel of 230 kinases
Method: as §1, §2

HIPK4 = HIPK4 (Homo sapiens, UniProt Q8NE63); test: Nanosyn kinase profiling, % inhibition; assay type: biochemical; settings: panel of 230 kinases
Chain of HIPK4 (Q8NE63 whole entry): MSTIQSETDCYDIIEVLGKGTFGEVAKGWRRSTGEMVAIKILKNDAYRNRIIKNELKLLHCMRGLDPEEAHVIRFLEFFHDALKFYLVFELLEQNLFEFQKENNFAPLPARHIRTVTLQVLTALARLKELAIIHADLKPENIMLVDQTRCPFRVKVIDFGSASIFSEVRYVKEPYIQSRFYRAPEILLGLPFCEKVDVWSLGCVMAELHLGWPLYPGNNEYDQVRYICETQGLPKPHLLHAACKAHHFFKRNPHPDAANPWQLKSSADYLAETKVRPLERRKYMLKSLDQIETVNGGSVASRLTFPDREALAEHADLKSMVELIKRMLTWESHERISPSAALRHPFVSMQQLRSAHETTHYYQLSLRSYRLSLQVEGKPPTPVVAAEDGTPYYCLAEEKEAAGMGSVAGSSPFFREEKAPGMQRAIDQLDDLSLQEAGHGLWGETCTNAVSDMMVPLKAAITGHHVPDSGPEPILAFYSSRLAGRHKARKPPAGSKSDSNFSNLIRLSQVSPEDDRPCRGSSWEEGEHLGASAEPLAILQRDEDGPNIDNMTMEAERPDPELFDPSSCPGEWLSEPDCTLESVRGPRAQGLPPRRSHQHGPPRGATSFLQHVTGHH
Method: as §1, §2

AXL = AXL (Homo sapiens, UniProt P30530); test: Nanosyn kinase profiling, % inhibition; assay type: biochemical; settings: panel of 230 kinases
Chain of AXL (P30530 26-894): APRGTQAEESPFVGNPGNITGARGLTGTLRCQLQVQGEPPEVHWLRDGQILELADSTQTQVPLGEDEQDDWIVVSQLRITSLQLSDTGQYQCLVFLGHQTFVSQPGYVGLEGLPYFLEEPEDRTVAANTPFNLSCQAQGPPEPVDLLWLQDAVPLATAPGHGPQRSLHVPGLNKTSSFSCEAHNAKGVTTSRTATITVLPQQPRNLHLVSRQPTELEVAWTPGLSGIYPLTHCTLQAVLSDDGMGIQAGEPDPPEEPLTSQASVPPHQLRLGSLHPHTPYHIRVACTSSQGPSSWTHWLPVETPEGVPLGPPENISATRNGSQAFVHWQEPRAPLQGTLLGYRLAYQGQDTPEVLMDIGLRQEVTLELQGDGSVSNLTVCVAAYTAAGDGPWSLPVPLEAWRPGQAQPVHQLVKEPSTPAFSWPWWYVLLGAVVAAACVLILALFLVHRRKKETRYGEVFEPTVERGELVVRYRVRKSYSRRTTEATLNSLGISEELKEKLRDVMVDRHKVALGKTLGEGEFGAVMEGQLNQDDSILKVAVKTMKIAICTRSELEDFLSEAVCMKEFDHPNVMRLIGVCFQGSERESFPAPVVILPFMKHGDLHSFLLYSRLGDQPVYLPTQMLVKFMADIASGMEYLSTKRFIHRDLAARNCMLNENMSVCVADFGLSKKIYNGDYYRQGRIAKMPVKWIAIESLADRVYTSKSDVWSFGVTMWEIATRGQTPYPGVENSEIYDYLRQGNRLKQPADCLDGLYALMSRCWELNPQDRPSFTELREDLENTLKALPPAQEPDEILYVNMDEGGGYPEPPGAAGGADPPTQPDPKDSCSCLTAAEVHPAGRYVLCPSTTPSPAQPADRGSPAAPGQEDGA
Method: as §1, §2

MUSK = MUSK (Homo sapiens, UniProt O15146); test: Nanosyn kinase profiling, % inhibition; assay type: biochemical; settings: panel of 230 kinases
Method: as §1, §2

EPH-A5 = EPH-A5 (Homo sapiens, UniProt P54756); test: Nanosyn kinase profiling, % inhibition; assay type: biochemical; settings: panel of 230 kinases
Method: as §1, §2

ABL-T315I = ABL-T315I (Homo sapiens, UniProt P00519, T315I); test: Nanosyn kinase profiling, % inhibition; assay type: biochemical; settings: panel of 230 kinases
Method: as §1, §2

TRKB = TRKB (Homo sapiens, UniProt Q16620); test: Nanosyn kinase profiling, % inhibition; assay type: biochemical; settings: panel of 230 kinases
Method: as §1, §2

TYRO3 = TYRO3 (Homo sapiens, UniProt Q06418); test: Nanosyn kinase profiling, % inhibition; assay type: biochemical; settings: panel of 230 kinases
Method: as §1, §2

EPH-B1 = EPH-B1 (Homo sapiens, UniProt P54762); test: Nanosyn kinase profiling, % inhibition; assay type: biochemical; settings: panel of 230 kinases
Method: as §1, §2

ABL1 = ABL1 (Homo sapiens, UniProt P00519); test: Nanosyn kinase profiling, % inhibition; assay type: biochemical; settings: panel of 230 kinases
Method: as §1, §2

JAK2 = JAK2 (Homo sapiens, UniProt O60674); test: Nanosyn kinase profiling, % inhibition; assay type: biochemical; settings: panel of 230 kinases
Method: as §1, §2

HCK = HCK (Homo sapiens, UniProt P08631); test: Nanosyn kinase profiling, % inhibition; assay type: biochemical; settings: panel of 230 kinases
Method: as §1, §2

EPH-B2 = EPH-B2 (Homo sapiens, UniProt P29323); test: Nanosyn kinase profiling, % inhibition; assay type: biochemical; settings: panel of 230 kinases
Method: as §1, §2

EPH-A1 = EPH-A1 (Homo sapiens, UniProt P21709); test: Nanosyn kinase profiling, % inhibition; assay type: biochemical; settings: panel of 230 kinases
Method: as §1, §2

CSF1R = molecular target: T2, CSF1R (Homo sapiens, UniProt P07333); settings: cited from earlier work
T2 construct: literature Ambit Biosciences

EGFR(L858R) = molecular target: T3, EGFR(L858R) (Homo sapiens, UniProt P00533, L858R); settings: 1 μM, duplicate, without preincubation; cited from earlier work
T3 construct: literature Ambit Biosciences

EGFR = molecular target: T4, EGFR (Homo sapiens, UniProt P00533); settings: 1 μM, duplicate, without preincubation; cited from earlier work
T4 construct: literature Ambit Biosciences

MKNK2 = molecular target: T5, MKNK2 (Homo sapiens, UniProt Q9HBH9); settings: 1 μM, duplicate, without preincubation; cited from earlier work
T5 construct: literature Ambit Biosciences
T5 sequence (Q9HBH9 whole entry): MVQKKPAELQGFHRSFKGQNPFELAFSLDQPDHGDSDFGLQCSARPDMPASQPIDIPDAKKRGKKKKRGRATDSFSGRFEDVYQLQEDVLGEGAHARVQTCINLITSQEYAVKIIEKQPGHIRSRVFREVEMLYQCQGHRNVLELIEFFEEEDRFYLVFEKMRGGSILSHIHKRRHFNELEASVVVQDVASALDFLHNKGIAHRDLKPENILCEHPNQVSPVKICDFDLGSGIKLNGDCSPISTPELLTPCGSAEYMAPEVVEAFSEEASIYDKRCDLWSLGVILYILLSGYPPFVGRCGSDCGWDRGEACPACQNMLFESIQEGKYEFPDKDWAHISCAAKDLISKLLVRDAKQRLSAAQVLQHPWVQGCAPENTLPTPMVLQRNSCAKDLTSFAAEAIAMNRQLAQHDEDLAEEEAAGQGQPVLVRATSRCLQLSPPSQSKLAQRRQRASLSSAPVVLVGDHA

EPHA2 = EPHA2 (Homo sapiens, UniProt P29317); design: literature Ambit Biosciences; settings: 1 μM, duplicate, without preincubation; cited from earlier work
Chain of EPHA2 (P29317 24-976): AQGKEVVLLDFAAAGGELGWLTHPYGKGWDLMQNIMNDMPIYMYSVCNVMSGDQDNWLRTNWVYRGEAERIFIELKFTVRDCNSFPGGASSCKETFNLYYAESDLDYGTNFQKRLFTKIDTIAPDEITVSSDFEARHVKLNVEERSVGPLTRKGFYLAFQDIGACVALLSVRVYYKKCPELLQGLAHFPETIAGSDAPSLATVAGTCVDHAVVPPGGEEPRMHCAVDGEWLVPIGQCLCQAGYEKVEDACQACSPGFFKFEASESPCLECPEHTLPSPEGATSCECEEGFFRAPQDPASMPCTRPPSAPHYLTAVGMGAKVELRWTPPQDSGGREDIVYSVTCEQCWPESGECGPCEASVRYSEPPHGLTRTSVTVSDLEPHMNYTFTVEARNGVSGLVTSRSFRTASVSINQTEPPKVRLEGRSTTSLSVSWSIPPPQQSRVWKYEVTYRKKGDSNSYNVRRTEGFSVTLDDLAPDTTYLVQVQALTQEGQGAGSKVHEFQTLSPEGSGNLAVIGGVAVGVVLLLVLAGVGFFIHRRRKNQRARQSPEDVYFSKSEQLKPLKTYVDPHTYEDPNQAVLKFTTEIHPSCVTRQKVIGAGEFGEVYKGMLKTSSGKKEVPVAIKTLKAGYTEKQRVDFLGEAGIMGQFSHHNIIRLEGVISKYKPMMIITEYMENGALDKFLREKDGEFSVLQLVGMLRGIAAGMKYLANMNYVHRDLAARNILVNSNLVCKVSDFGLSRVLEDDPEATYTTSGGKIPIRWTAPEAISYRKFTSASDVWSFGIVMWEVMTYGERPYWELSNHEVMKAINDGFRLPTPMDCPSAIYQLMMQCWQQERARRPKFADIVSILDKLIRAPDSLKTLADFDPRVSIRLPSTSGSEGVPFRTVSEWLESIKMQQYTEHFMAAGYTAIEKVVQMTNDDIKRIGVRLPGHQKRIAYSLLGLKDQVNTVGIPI

PCTK1 = molecular target: T6, PCTK1 (Homo sapiens, UniProt Q00536); settings: 1 μM, duplicate, without preincubation; cited from earlier work
T6 construct: literature Ambit Biosciences
T6 sequence (Q00536 whole entry): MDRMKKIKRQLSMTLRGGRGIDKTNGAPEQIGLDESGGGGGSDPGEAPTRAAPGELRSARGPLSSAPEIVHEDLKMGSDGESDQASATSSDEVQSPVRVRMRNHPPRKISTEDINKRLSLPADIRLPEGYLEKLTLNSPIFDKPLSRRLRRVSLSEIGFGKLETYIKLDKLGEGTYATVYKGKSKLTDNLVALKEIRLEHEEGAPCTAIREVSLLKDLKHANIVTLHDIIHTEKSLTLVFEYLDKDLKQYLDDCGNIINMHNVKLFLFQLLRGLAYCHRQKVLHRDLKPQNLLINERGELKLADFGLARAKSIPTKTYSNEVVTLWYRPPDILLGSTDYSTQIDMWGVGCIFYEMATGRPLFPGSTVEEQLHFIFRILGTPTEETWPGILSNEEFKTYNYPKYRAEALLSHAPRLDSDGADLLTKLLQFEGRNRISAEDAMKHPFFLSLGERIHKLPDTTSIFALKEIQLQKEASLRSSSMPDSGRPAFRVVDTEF

BMPR2 = molecular target: T7, BMPR2 (Homo sapiens, UniProt Q13873); settings: 1 μM, duplicate, without preincubation; cited from earlier work
T7 construct: literature Ambit Biosciences
T7 sequence (Q13873 27-1038): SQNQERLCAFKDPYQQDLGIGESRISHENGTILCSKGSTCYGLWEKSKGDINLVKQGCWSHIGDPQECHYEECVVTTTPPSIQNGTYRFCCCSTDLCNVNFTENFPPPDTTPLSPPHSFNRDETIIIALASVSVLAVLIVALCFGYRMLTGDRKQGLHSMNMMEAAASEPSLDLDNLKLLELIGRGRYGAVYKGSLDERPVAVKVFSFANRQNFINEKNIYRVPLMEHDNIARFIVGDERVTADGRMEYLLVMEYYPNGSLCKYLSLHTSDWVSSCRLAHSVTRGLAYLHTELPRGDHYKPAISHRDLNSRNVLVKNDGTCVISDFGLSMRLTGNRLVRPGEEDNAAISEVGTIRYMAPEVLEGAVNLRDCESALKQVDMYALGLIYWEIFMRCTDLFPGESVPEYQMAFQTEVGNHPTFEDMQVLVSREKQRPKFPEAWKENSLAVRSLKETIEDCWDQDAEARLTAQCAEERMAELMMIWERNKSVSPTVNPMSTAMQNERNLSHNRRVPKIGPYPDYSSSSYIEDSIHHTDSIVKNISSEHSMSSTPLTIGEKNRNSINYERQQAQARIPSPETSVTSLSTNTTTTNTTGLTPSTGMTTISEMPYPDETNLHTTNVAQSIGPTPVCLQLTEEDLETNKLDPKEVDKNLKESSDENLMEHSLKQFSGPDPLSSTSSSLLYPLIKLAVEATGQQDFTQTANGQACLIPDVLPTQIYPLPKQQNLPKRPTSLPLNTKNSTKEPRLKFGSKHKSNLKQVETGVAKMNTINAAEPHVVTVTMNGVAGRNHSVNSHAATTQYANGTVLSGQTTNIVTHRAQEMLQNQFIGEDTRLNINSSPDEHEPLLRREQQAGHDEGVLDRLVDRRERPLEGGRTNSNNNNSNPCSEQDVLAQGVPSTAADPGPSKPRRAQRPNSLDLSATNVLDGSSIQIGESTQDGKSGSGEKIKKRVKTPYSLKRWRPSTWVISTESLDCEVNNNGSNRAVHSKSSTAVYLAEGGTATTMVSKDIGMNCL

inhibition at 5 µM (MKNK1): ≥ 50%
inhibition at 5 µM (PRKD3): ≥ 50%
inhibition at 5 µM (HIPK4): ≥ 50%
inhibition at 5 µM (AXL): ≥ 50%
inhibition at 5 µM (MUSK): ≥ 50%
inhibition at 5 µM (EPH-A5): ≥ 50%
inhibition at 5 µM (ABL-T315I): ≥ 50%
inhibition at 5 µM (TRKB): ≥ 50%
inhibition at 5 µM (TYRO3): ≥ 50%
inhibition at 5 µM (EPH-B1): ≥ 50%
inhibition at 5 µM (ABL1): ≥ 50%
inhibition at 5 µM (JAK2): ≥ 50%
inhibition at 5 µM (HCK): ≥ 50%
inhibition at 5 µM (EPH-B2): ≥ 50%
inhibition at 5 µM (EPH-A1): ≥ 50%
SMILES: CNC(=O)c1cc(Oc2ccc(NC(=O)c3nc(C(F)(F)F)[nH]c3-c3ccc(F)cc3)cc2)ccn1 [Inhibitor I-6, 4-(4-{[5-(4-Fluoro-phenyl)-2-trifluoromethyl-3H-imidazole-4-carbonyl]-amino}-phenoxy)-pyridine-2-carboxylic acid methylamide]

SMILES: Cc1ccc(NC(=O)c2[nH]c(C(F)(F)F)nc2-c2ccc(F)cc2)cc1Nc1ccc2ncn(C)c(=O)c2c1 [KIN-035]
improved potency for CSF1R, KIN-032 vs KIN-035 (4-fluoro-substituent) (CSF1R): 70 fold
inhibition of EGFR(L858R) (EGFR(L858R)): X (X > 25% @ 1 μM)
inhibition of EGFR (EGFR): X (X > 25% @ 1 μM)
inhibition of MKNK2 (MKNK2): X (X > 25% @ 1 μM)
inhibition of EPHA2 (EPHA2): XX (XX > 50% @ 1 μM)

SMILES: Cc1ccc(-c2nc(C(F)(F)F)[nH]c2C(=O)Nc2ccc(C)c(Nc3ccc4ncn(C)c(=O)c4c3)c2)cc1F [KIN-038]
inhibition of PCTK1 (PCTK1): X (X > 25% @ 1 μM)
inhibition of BMPR2 (BMPR2): X (X > 25% @ 1 μM)
